Reference: patent publication US8921267B2, “Safening 6-(trisubstituted phenyl)-4-amino-2-pyridinecarboxylate herbicide injury on cereal crops” (Dow AgroSciences LLC, priority 2008, dated 2014)

Experiments:
[1] = tested on: cleavers (Galium aparine L; GALAP); assay: Postemergence herbicidal activity, greenhouse, visual injury: cleavers; type: in vivo; set-up: key: visual injury, 0–100%: 0 = no injury, 100 = complete kill
Protocol: (§1) Evaluation of Postemergence Herbicidal Safening in Cereal Crops
(§2) Seeds of the desired test plant species were planted in Sun Gro MetroMix® 306 planting mixture, which typically has a pH of 6.0 to 6.8 and an organic matter content of about 30 percent, in plastic pots with a surface area of 103.2 square centimeters (cm^2). When required to ensure good germination and healthy plants, a fungicide treatment and/or other chemical or physical treatment was applied. The plants were grown for 7-36 days (d) in a greenhouse with an approximate 14-hour (h) photoperiod which was maintained at about 18° C. during the day and 17° C. during the night. Nutrients and water were added on a regular basis and supplemental lighting was provided with overhead metal halide 1000-Watt lamps as necessary. The plants were employed for testing when they reached the second or third true leaf stage.
(§3) Weighed amounts of esters (methyl) or salts (TEA [triethylammonium], K [potassium]) of 4-amino-3-chloro-6-(4-chloro-2-fluoro-3-methoxyphenyl)pyridine-2-carboxylic acid (Compound 1) were dissolved in a volume of 97:3 volume/volume (v/v) acetone/dimethylsulfoxide (DMSO) to obtain stock solutions. […] The concentrated stock solutions were diluted with an aqueous mixture of 1.5% v/v of Agri-dex crop oil concentrate to provide the appropriate application rates. Compound requirements are based upon a 12 mL application volume at a rate of 187 liters per hectare (L/ha). Stocks solutions of the safeners were prepared following the same procedure. Spray solutions of the safeners and experimental compound mixtures were prepared by adding the stock solutions to the appropriate amount of dilution solution to form a 12 mL spray solution with active ingredients in two-way combinations. Formulated compounds were applied to the plant material with an overhead Mandel track sprayer equipped with 8002E nozzles calibrated to deliver 187 L/ha over an application area of 0.503 square meters (m^2) at a spray height of 18 inches (43 centimeters (cm)) above average plant canopy. Control plants were sprayed in the same manner with the solvent blank.
(§4) The treated plants and control plants were placed in a greenhouse as described above and watered by sub-irrigation to prevent wash-off of the test compounds. After 20-22 d, the condition of the test plants as compared with that of the control plants was determined visually and scored on a scale of 0 to 100 percent where 0 corresponds to no injury and 100 corresponds to complete kill.
(§5) Colby's equation was used to determine the herbicidal effects expected from the mixtures (Colby, S. R. Calculation of the synergistic and antagonistic response of herbicide combinations. Weeds 1967, 15, 20-22.).
(§6) The following equation was used to calculate the expected activity of mixtures containing two active ingredients, A and B: Expected=A+B−(A×B/100)
(§7) A=observed efficacy of active ingredient A at the same concentration as used in the mixture.
(§8) B=observed efficacy of active ingredient B at the same concentration as used in the mixture.

[2] = tested on: wild pansy (Viola tricolor L; VIOTR); assay: Postemergence herbicidal activity, greenhouse, visual injury: wild pansy; type: in vivo; set-up: key: visual injury, 0–100%: 0 = no injury, 100 = complete kill
Protocol: as §1, §2, §3, §4, §5, §6, §7, §8

[3] = tested on: barley (Hordeum vulgare L; HORVS); assay: Postemergence herbicidal safening, greenhouse, visual injury: barley; type: in vivo
Protocol: as §1, §2, §3, §4, §5, §6, §7, §8

barley (HORVW) = assay: Postemergence herbicidal safening, greenhouse, visual injury: barley (HORVW)
[4] = tested on: bird's-eye speedwell (Veronica persica L; VERPE); assay: Postemergence herbicidal activity, greenhouse, visual injury: bird's-eye speedwell; type: in vivo; set-up: key: visual injury, 0–100%: 0 = no injury, 100 = complete kill
Protocol: as §1, §2, §3, §4, §5, §6, §7, §8

[5] = tested on: chickweed (Stellaria media L; STEME); assay: Postemergence herbicidal activity, greenhouse, visual injury: chickweed; type: in vivo; set-up: key: visual injury, 0–100%: 0 = no injury, 100 = complete kill
Protocol: as §1, §2, §3, §4, §5, §6, §7, §8

[6] = tested on: corn poppy (Papaver rhoeas L; PAPRH); assay: Postemergence herbicidal activity, greenhouse, visual injury: corn poppy; type: in vivo
Protocol: as §1, §2, §3, §4, §5, §6, §7, §8

[7] = tested on: wheat (Triticum aestivum L; TRZAS); assay: Postemergence herbicidal safening, greenhouse, visual injury: wheat; type: in vivo
Protocol: as §1, §2, §3, §4, §5, §6, §7, §8

[8] = tested on: wild buckwheat (Polygonum convolvulus L; POLCO); assay: Postemergence herbicidal activity, greenhouse, visual injury: wild buckwheat; type: in vivo
Protocol: as §1, §2, §3, §4, §5, §6, §7, §8

[9] = tested on: Russian thistle (Salsola iberica L; SASKR); assay: Postemergence herbicidal activity, greenhouse, visual injury: Russian thistle; type: in vivo; set-up: key: visual injury, 0–100%: 0 = no injury, 100 = complete kill
Protocol: as §1, §2, §3, §4, §5, §6, §7, §8

[10] = tested on: purple deadnettle (Lamium purpureum L; LAMPU); assay: Postemergence herbicidal activity, greenhouse, visual injury: purple deadnettle; type: in vivo; set-up: key: visual injury, 0–100%: 0 = no injury, 100 = complete kill
Protocol: as §1, §2, §3, §4, §5, §6, §7, §8

[11] = tested on: durum wheat (Triticum durum L; TRZDU); assay: Postemergence herbicidal safening, greenhouse, visual injury: durum wheat; type: in vivo; settings: Compound 1 Methyl ester 35 g/ha alone
Protocol: as §1, §2, §3, §4, §5, §6, §7, §8

[12] = tested on: wheat (Triticum aestivum L; TRZAW); assay: Postemergence herbicidal safening, greenhouse, visual injury: wheat (TRZAW); type: in vivo; settings: Compound 1 Methyl ester 35 g/ha alone
Protocol: as §1, §2, §3, §4, §5, §6, §7, §8

[13] = Compound 1 Methyl ester 35 g/ha alone

CC1(C)CN2C(=O)CCC2(C)N(C(=O)C(Cl)Cl)C1 (racemic) [Dicyclonon, (RS)-1-dichloroacetyl-3,3,8a-trimethylperhydropyrrolo[1,2]pyrimidin-6-one, reference compound]
GALAP Ob ([1]; applied alone at 17.5 g/ha): 0% | GALAP Ob ([1]; applied alone at 35 g/ha): 0% | GALAP Ob ([1]; applied alone at 70 g/ha): 0% | GALAP Ob ([1]; applied alone at 140 g/ha): 0% | VIOTR Ob ([2]; applied alone at 17.5 g/ha): 0% | VIOTR Ob ([2]; applied alone at 35 g/ha): 0% | VIOTR Ob ([2]; applied alone at 70 g/ha): 0% | VIOTR Ob ([2]; applied alone at 140 g/ha): 0% | HORVS Ob ([3]; applied alone at 17.5 g/ha): 0% | HORVS Ob ([3]; applied alone at 35 g/ha): 0% | HORVS Ob ([3]; applied alone at 70 g/ha): 0% | HORVS Ob ([3]; applied alone at 140 g/ha): 0% | HORVW Ob (Observed values) (barley (HORVW); safener 4.4 g/ha alone): 0% | HORVW Ob (Observed values) (barley (HORVW); safener 8.8 g/ha alone): 0% | HORVW Ob (Observed values) (barley (HORVW); safener 17.5 g/ha alone): 0% | HORVW Ob (Observed values) (barley (HORVW); safener 35 g/ha alone): 0% | VERPE Ob ([4]; applied alone at 17.5 g/ha): 0% | VERPE Ob ([4]; applied alone at 35 g/ha): 0% | VERPE Ob ([4]; applied alone at 70 g/ha): 0% | VERPE Ob ([4]; applied alone at 140 g/ha): 0% | STEME Ob ([5]; applied alone at 17.5 g/ha): 0% | STEME Ob ([5]; applied alone at 35 g/ha): 0% | STEME Ob ([5]; applied alone at 70 g/ha): 0% | STEME Ob ([5]; applied alone at 140 g/ha): 0% | PAPRH Ob ([6]; applied alone at 17.5 g/ha): 0% | PAPRH Ob ([6]; applied alone at 35 g/ha): 0% | PAPRH Ob ([6]; applied alone at 70 g/ha): 0% | PAPRH Ob ([6]; applied alone at 140 g/ha): 0% | PAPRH Ob (Observed values) ([6]; safener 4.4 g/ha alone): 0 | PAPRH Ob (Observed values) ([6]; safener 8.8 g/ha alone): 0 | PAPRH Ob (Observed values) ([6]; safener 17.5 g/ha alone): 0 | PAPRH Ob (Observed values) ([6]; safener 35 g/ha alone): 0 | TRZAS Ob ([7]; applied alone at 17.5 g/ha): 0% | TRZAS Ob ([7]; applied alone at 35 g/ha): 0% | TRZAS Ob ([7]; applied alone at 70 g/ha): 0% | TRZAS Ob ([7]; applied alone at 140 g/ha): 0% | POLCO Ob ([8]; applied alone at 17.5 g/ha): 0% | POLCO Ob ([8]; applied alone at 35 g/ha): 0% | POLCO Ob ([8]; applied alone at 70 g/ha): 0% | POLCO Ob ([8]; applied alone at 140 g/ha): 0% | SASKR Ob ([9]; applied alone at 17.5 g/ha): 0% | SASKR Ob ([9]; applied alone at 35 g/ha): 0% | SASKR Ob ([9]; applied alone at 70 g/ha): 0% | SASKR Ob ([9]; applied alone at 140 g/ha): 0% | LAMPU Ob (Observed values) ([10]; safener 4.4 g/ha alone): 0 | LAMPU Ob (Observed values) ([10]; safener 8.8 g/ha alone): 0 | LAMPU Ob (Observed values) ([10]; safener 17.5 g/ha alone): 0 | LAMPU Ob (Observed values) ([10]; safener 35 g/ha alone): 0

COC(=O)c1nc(-c2ccc(Cl)c(OC)c2F)cc(N)c1Cl [1 Methyl ester]
TRZDU Ob (Observed values) [11]: 42% | HORVS Ob (Observed values) [3, 13]: 33 | HORVW Ob (Observed values) (barley (HORVW); [13]): 50% | PAPRH Ob (Observed values) [6, 13]: 97 | TRZAS Ob (Observed values) [7, 13]: 50 | TRZAW Ob (Observed values) [12]: 35% | LAMPU Ob (Observed values) [10, 13]: 97
